According to PMC3386930, “Altering APP Proteolysis: Increasing sAPPalpha Production by Targeting Dimerization of the APP Ectodomain” (PLoS ONE, 2012):
“Also recorded” adds a separate entry of the source.

What was measured:
[1] = target: T1, eAPP230–624 (Homo sapiens, UniProt P05067); assay: Intrinsic tryptophan fluorescence of eAPP230–624; assay type: binding; conditions: for quenching constant (Ksv): linear part, equation 1
T1 construct: made in house
Description: (§1) The excitation spectra of the intrinsic tryptophan fluorescence were recorded using either a Shimadzu RF-530PC (Shimadzu Scientific Instruments) or a Spectramax XPS spectrophotometer (Molecular Devices).
Full emission spectra were measured with the Shimadzu RF-530PC using a 3 ml quartz cuvette, a 5 nm slit width and protein concentrations between 0.2–0.6 µM. […] For these larger dilutions, control titrations with the protein alone were used to generate a scaling matrix where the scale factor was both a function of wavelength and dilution. […] A similar scaling matrix was used to correct for the effect of dilution with DMSO. […] All titrations were performed at 24°C. The oligomers were stored on ice during the experiment.
These concentrations are analogous to concentrations used to create complexes for the small angle x-ray scattering analysis. The incubated material was diluted with PBS so that the final protein concentration was 0.5 µM. The spectra were recorded with the Shimadzu […].
For experiments with the Spectromax XPS plate reader, an excitation wavelength of 295 nm was used. This excitation wavelength was chosen to minimize both the contribution of tyrosine in the protein and the background fluorescence of the 96-well plates (Costar #3915).
For the quenching experiments, the data were analyzed by constructing Stern-Volmer plots, F0/F vs. Q, where Fo is the intensity of the fluorescence at zero concentration, F is the intensity of the fluorescence, and Q is the concentration of the quenching agent. When quenching is through either a static (binding) or dynamic (collisional) mechanism this plot is linear and follows the equation: [drawing 1] (1) where Ksv is the quenching constant. When both processes are present the Stern-Volmer plot is quadratic: [drawing 2] (2) where KD is the equilibrium constant associated with dynamic quenching and Ks is the equilibrium constant associated with static quenching. All parameters were determined using PRISM (GraphPad) and the appropriate non-linear curve fitting routine.
The centroid wavelength (λc) was calculated as: [drawing 3] (3) where I(λi) is the intensity observed for the wavelength (λi). The range of wavelengths was 310–390 nm.

[2] = target: T1, eAPP230–624; assay: Difference absorption spectra of eAPP230–624; assay type: binding
[3] = tested on: Aβ oligomers; conditions: cited from earlier work
[4] = tested on: MBP-eAPP230–624; assay: Small-angle X-ray scattering (SAXS) of MBP-eAPP230–624 complexes; assay type: binding; conditions: 50 µM compound, 1:12 molar ratio, PBS plus 2% DMSO
Description: as §1
(§2) The samples were incubated on ice for 20 minutes and then concentrated to 50 µl with 10-kDa cutoff concentrators (Millipore). […] Samples of the filtrates were used for buffer subtraction.
(§3) The samples were then concentrated and purified with a Superdex S200 size-exclusion column with 20 mM Tris pH 7.4, 100 mM sodium chloride and 2 mM EDTA. Samples of the protein buffer from the size-exclusion columns were used for buffer subtraction.
(§4) Data collection and processing
(§5) Small-angle X-ray scattering data were collected using protein concentrations in the range of 0.5–3 mg/ml and an X-ray wavelength of 1.11 Å at beam line 12.3.1 (Advanced Light Source). Data were integrated with software customized for the beam line and processed with the program PRIMUS [30]. The program GNOM [31] was used to calculate the maximum dimension and the radius of gyration and to estimate the intensity of the scattering at zero angle for higher concentration samples.

[5] = tested on: 7W-CHO cells; assay: sAPPα and sAPPβ production in 7W-CHO cells (AlphaLISA); assay type: cell-based; conditions: for sAPPα production / α-cleavage of APP (in words): 1 µM compound, 24 hours, 50,000 cells per well, vs 0.01% DMSO
Description: (§6) B103 rat neuroblastoma cells and 7W-CHO cells were seeded at 100,000 or 50,000 cells per well in a 96-well plate and allowed to grow for one day. The B103 rat neuroblastoma cells stably expressing human wild-type APP were a kind gift from Dr. Lennart Mucke (J. David Gladstone Institute of Neurological Disease and University of California, San Francisco). The 7W-CHO cells were a kind gift from Dr. Edward Koo (Department of Molecular Pathology, University of California, San Diego). The cell culture medium was then changed and the cells treated with 1 µM disulfiram, 1 µM sulfiram, or 0.01% DMSO (control). After 24 hours, the amount of sAPPα and sAPPβ produced in the medium was quantified using the AL231C and AL232C AlphaLISA kits from Perkin Elmer, respectively, modified using a custom biotinylated APP antibody.
A) Effect of treatment with disulfiram and sulfiram on sAPPα and Aβ production in 7W-CHO cells. 7W-CHO cells were seeded at 50,000 cells per well in a 96-well plate and allowed to grow for one day. The cell culture medium was then changed and the cells treated with 1 µM disulfiram, 1 µM sulfiram, or 0.01% DMSO (control). After 24 hours, the amount of sAPPα and sAPPβ produced in the medium was quantified using the AL231C and AL232C AlphaLISA kit from Perkin Elmer, modified using a custom biotinylated human APP antibody. B) Effect on the ratio of α to β cleavage in 7W-CHO cells, as calculated by dividing the amount of sAPPα to sAPPβ produced by the 50,000 7W-CHO cells during one day under the effect of either disulfiram, sulfiram or a DMSO control. C) Effect on the ratio of α to β cleavage in B103 cells. B103 neuroblastoma cells were seeded at 100,000 cells per well in a 96-well plate and allowed to grow for one day. The cell culture medium was then changed and the cells treated with 1 µM disulfiram, 1 µM sulfiram, or 0.01% DMSO (Control). After 24 hours, the amount of sAPPα and sAPPβ produced in the medium was quantified using the same modified AL231C and AL232C AlphaLISA kit from Perkin Elmer. The ratio of α to β cleavage was calculated by dividing the amount of sAPPα to sAPPβ produced by the 100,000 B103 cells during one day under the effect of the disulfiram, sulfiram or DMSO control.

[6] = tested on: B103 rat neuroblastoma cells stably expressing human wild-type APP; assay: sAPPα and sAPPβ production in B103 cells (AlphaLISA); assay type: cell-based; conditions: 1 µM compound, 24 hours, 100,000 cells per well, vs 0.01% DMSO
Description: as §6
A) Effect of treatment with disulfiram and sulfiram on sAPPα and Aβ production in 7W-CHO cells. […] After 24 hours, the amount of sAPPα and sAPPβ produced in the medium was quantified using the AL231C and AL232C AlphaLISA kit from Perkin Elmer, modified using a custom biotinylated human APP antibody. B) Effect on the ratio of α to β cleavage in 7W-CHO cells, as calculated by dividing the amount of sAPPα to sAPPβ produced by the 50,000 7W-CHO cells during one day under the effect of either disulfiram, sulfiram or a DMSO control. […]

[7] = target: MBP-eAPP_(230–624), maltose binding protein fusion protein containing residues 230–624 (UniProt P05067); assay: small-angle X-ray scattering (SAXS); 150 µl MBP-eAPP230-624 (≈0.5 mg/ml) diluted with 400 µl of peptide solution, 20 minutes on ice, concentrated to 50 µl with 10-kDa cutoff concentrators
[8] = target: TRX-eAPP_(290–624), thioredoxin fusion protein containing residues 290–624 of APP695 (UniProt P05067); assay: small-angle X-ray scattering (SAXS); eAPP fragment incubated on ice with Aβ oligomers or Aβ fragments (peptide less than 10 µM), concentrated and purified on Superdex S200 in 20 mM Tris pH 7.4, 100 mM sodium chloride, 2 mM EDTA
[9] = target: eAPP_(230–624), fragment of the APP ectodomain containing residues 230–624 (UniProt P05067); assay: as above
[10] = target: T1, eAPP230–624; assay: Small-angle X-ray scattering (SAXS) of eAPP230–624 complexes; assay type: binding; conditions: for MWcalc/MWseq: SAXS relative mass, MWseq 45-kDa for eAPP230–624, max. error ±0.2, monomer around 1.3, protein alone 2.0; for Dmax / Rg: SAXS, GNOM, eAPP230–624 with peptide; for Dmax: maximum dimension, max. estimated error ±10 Å; for Rg: radius of gyration, max. estimated error ±2 Å
Description: as §2, §3, §4, §5

[11] = Size-exclusion chromatography of Aβ fragments; assay type: physicochemical; conditions: Superdex 75 column, PBS, indicates smaller dimers or monomers
Excerpt: The arrow indicates the direction of shift of the fluorescence peak. […] The black line indicates the starting concentration and the blue line indicates the final concentration. The arrow indicates the direction of shift of the fluorescence peak.

[12] = tested on: neuronal cells; conditions: similar activity; reference not printed with this sentence, 42 for APP319–335; cited from earlier work
Excerpt: A 17-amino acid peptide (APP319–335) that contains the RERMS sequence is an example of such a compound. […] The mechanism by which the RERMS peptide enhances the producti ...

[13] = tested on: APP; conditions: cited from earlier work
Excerpt: These changes in conformation may be important in setting the balance between α-cleavage and β-cleavage of APP because the relative rates of these cleavages are known to be affected by interactions between APP and a number of proteins, both at the cell surface and during recycling of APP [19], [20]. Altering the balance of these two cleavages to favor α-cleavage is of potential therapeutic benefit for Alzheimer's disease since it would reduce Aβ production and enhance sAPPα production, without inhibition of the beta and gamma secretases. A precedent exists for this effect in that an increa ...

[14] = 0.64 µM eAPP230–624, RERMS 0–270 µM

## O=S(=O)(O)c1cccc2cccc(Nc3ccccc3)c12 [1,8-ANS, 1-anilinonaphthalene-8-sulfonic acid]
[1]; 1,8-ANS below 50 µM (1:14 protein to 1,8-ANS molar ratio)
  fluorescence intensity drop: more than 50%
[1]; 1,8-ANS greater than 150 µM
  quenching of fluorescence at high concentration: quench nearly all the fluorescence
[1]; 1:20 protein to 1,8-ANS molar ratio, excitation wavelengths greater than 285 nm
  quenching of intrinsic fluorescence (FRET): efficiently quenched the intrinsic fluorescence
[1]; 345 nm, Shimadzu RF-530PC, 0.64 µM eAPP230–624, 24°C
  quenching constant (Ksv): 9.3 ± 0.1 mM⁻¹
[1]; 375 nm, Shimadzu RF-530PC, 0.64 µM eAPP230–624, 24°C
  quenching constant (Ksv): 10.9 ± 0.2 mM⁻¹
[1]; 375 nm, Spectramax XPS plate reader
  quenching constant (Ksv): 9.6 ± 0.3 mM⁻¹
[2]; one-to-ten molar ratio protein to 1,8-ANS, 3 µM eAPP230–624
  effect on absorption of eAPP230–624: significant effect on the absorption
[3]
  binding to Aβ oligomers and Aβ aggregation: bind to Aβ oligomers and prevent Aβ aggregation

## CCN(CC)C(=S)SC(=S)N(CC)CC [Sulfiram]
[4]
  effect on monomer-dimer equilibrium / dimerization of MBP-eAPP230–624 (in words): significantly affected the monomer-dimer equilibrium of MBP-eAPP230–624 in favor of the monomer; also recorded: shift the monomer-dimer equilibrium in favor of the monomer
[1]; 0.64 µM eAPP230–624, disulfiram 0–130 µM, sulfiram 0–320 µM, Shimadzu RF-530PC
  quenching of intrinsic fluorescence (in words): significantly quenched the intrinsic fluorescence
[1]; intrinsic fluorescence, confirmed with SAXS
  effect on dimerization of the ectodomain fragment (in words): inhibit dimerization of the ectodomain fragment
[2]; 1:6 molar ratio, 8.3 µM eAPP230–624, 50 µM compound, PBS plus 2% DMSO
  change in extinction coefficient: significant drop in the extinction coefficient
[5]
  sAPPα production / α-cleavage of APP (in words): increase sAPPα production
[5]; listed as sulfiram
  sAPPα production / α-cleavage of APP (in words): significantly enhance the production of sAPPα; also recorded: enhance α-cleavage significantly
[5]; sulfiram vs disulfiram, cell line not stated at place
  relative ability to enhance sAPPα production in cells (in words): reduced ability to enhance sAPPα production in cells
[6]
  sAPPα production / α-cleavage of APP (in words): significantly enhance the production of sAPPα; also recorded: enhance α-cleavage significantly

## Aβ1-28 (peptide)
[7]
  MWcalc/MWseq (apparent mass of the sample over the sequence mass of the eAPP fragment): 1.2
[8]
  MWcalc/MWseq (apparent mass of the sample over the sequence mass of the eAPP fragment): 1.5
[9]
  MWcalc/MWseq (apparent mass of the sample over the sequence mass of the eAPP fragment): 0.9

## Aβ1-28: Aβ fragment
[10]
  MWcalc/MWseq: 0.9
  Dmax: 170 Å
  Rg: 46 Å
[1]; legend of titration of 0.64 µM eAPP230–624 with 0–60 µM fragment
  inhibition of eAPP dimerization (in words): inhibit eAPP dimerization
[1]; titration of 0.64 µM eAPP230–624, 345 nm
  pattern of changes in the intrinsic fluorescence (in words): acted like Aβ1-40 dimers in terms of the changes in the intrinsic fluorescence
[11]
  elution later than the 7-kDa peak: 0.5 mls

## RERMS [The RERMS peptide itself (APP 328–332)]
[10]; SAXS of complex
  SAXS form of eAPP230–624 complex (in words): dimer with a significantly smaller maximum dimension and radius of gyration than the native dimer
[10]
  MWcalc/MWseq: 1.8
  Dmax: 130 Å
  Rg: 39 Å
[1]; [14]
  red-shift in the centroid wavelength: 1 nm
  red-shift in the peak position: approximately 2 nm
[1]; 0.64 µM eAPP230–624, RERMS 0–270 µM (1:0–1:420)
  effect on intensity of intrinsic fluorescence (in words): quenches the intensity of the intrinsic fluorescence
[12]
  fold reduced potency vs APP319–335: 10 -fold

## sAPPα: product of α-cleavage of APP; contains almost the entire ectodomain
[13]
  inhibition of APP dimerization and cell survival (in words): inhibit APP dimerization and increase cell survival
